Measurements as given in patent publication US20230175066A1, “ANALYSIS/DIAGNOSIS METHOD UTILIZING RNA MODIFICATION” (OSAKA UNIVERSITY, priority 2018, published 2023).
Each block holds one compound with its values, some of them ahead of it.

How the values were obtained:
[1] = system: trifluridine resistant strain of cancer cell strain DLD-1; experiment: IC50 for trifluridine in the trifluridine resistant strain prepared from DLD-1; type: cell-based; settings: Homo sapiens; DLD-1 after maintenance culture for 6 months or more in the presence of trifluridine (about 10 mg/mL)
Experimental: The cancer cell strain DLD-1 obtained from a cell bank such as ATCC or RIKEN was subjected to maintenance culture for 6 months or more in the presence of trifluridine (FTD) (Aldrich-Sigma) (about 10 mg/mL). The maintenance culture was subcultured about twice a week to maintain 60 to 80% confluence at 37° C. in a serum 10% added DMEM medium on a plastic dish.

[2] = system: DLD-1 cell strain, 5-FU resistant strain, FTD resistant strain; design: methylation on microRNA, FTD resistant strain / miRNA methylation, FTD resistant strain: unit not given here; settings: for Rate of change, FTD resistance (fold) / Rate of change, FTD (fold): FTD resistant versus parental strain; for methylation on microRNA, FTD parental strain / methylation on microRNA, FTD resistant strain: RIP sequencing; for methylation on microRNA, FTD parental strain: DLD-1, FTD parental strain; for methylation on microRNA, FTD resistant strain: DLD-1 FTD resistant strain; for miRNA methylation, FTD parental strain / miRNA methylation, FTD resistant strain: miRNAs that decrease post-surgery
Experimental: For an original DLD-1 cell strain and each resistant strain (5-FU resistant strain and FTD resistant strain), RNA methylation analysis in accordance with the protocol for RIP sequencing described above and microarray or mRNA expression analysis similar to the qRT-PCR of Example 2-2 was performed. RIP sequencing and RNA expression information based primary component analysis (two dimensional projection using a component resulting in maximum dispersion) was performed. The results are represented as mean ± standard deviation (SD) based on three independent experiments. The statistical significance of the results was evaluated by pairwise T-TEST using R version 3.4.3 (2017-11-30) on Microsoft Excel® software (Microsoft Campus, Redmond, WA, USA). P value < 0.05 was considered statistically significant. As a result, wild-type strain and each resistant strain was clearly distinguished. […] Total RNA was purified in accordance with the protocol for Trizol (Invitrogen) from the original DLD-1 cell strain and each resistant strain (5-FU resistant strain and FTD resistant strain), and then RNA methylation analysis was performed according to the protocol for RIP sequencing described above. Ribo-Zero rRNA Removal Kit (Illumina) was used for the removal of rNRAs.

IC50 [1]: 300 µM
Compound: O=c1[nH]c(=O)n([C@H]2C[C@H](O)[C@@H](CO)O2)cc1C(F)(F)F [trifluridine]

Compound: miR-378i (ACUGGACUAGGAGUCAGAAGG; chemistry not fully specified; listed as Homo sapiens)
Rate of change, 5-FU resistance (fold) [2]: 0.50 fold | methylation on microRNA, 5-FU parental strain [2]: 18 | methylation on microRNA, 5-FU resistant strain [2]: 1 | Rate of change, FTD resistance (fold) [2]: 0.33 fold | methylation on microRNA, FTD parental strain [2]: 6 | methylation on microRNA, FTD resistant strain [2]: 3

Compound: miR-378d (ACUGGACUUGGAGUCAGAAA; chemistry not fully specified; listed as Homo sapiens)
Rate of change, 5-FU resistance (fold) [2]: 1.54 fold | methylation on microRNA, 5-FU parental strain [2]: 144 | methylation on microRNA, 5-FU resistant strain [2]: 30 | Rate of change, FTD resistance (fold) [2]: 0.36 fold | methylation on microRNA, FTD parental strain [2]: 80 | methylation on microRNA, FTD resistant strain [2]: 63

Compound: miR-3690 (ACCUGGACCCAGCGUAGACAAAG; chemistry not fully specified; listed as Homo sapiens)
methylation on microRNA, 5-FU parental strain [2]: 0 | methylation on microRNA, 5-FU resistant strain [2]: 0 | Rate of change, FTD resistance (fold) [2]: 0.00 fold | methylation on microRNA, FTD parental strain [2]: 1 | methylation on microRNA, FTD resistant strain [2]: 0

Compound: miR-3131 (UCGAGGACUGGUGGAAGGGCCUU; chemistry not fully specified; listed as Homo sapiens)
Rate of change, 5-FU resistance (fold) [2]: (0.33) fold | methylation on microRNA, 5-FU parental strain [2]: 9 | methylation on microRNA, 5-FU resistant strain [2]: 3 | Rate of change, FTD resistance (fold) [2]: (10.00) fold | methylation on microRNA, FTD parental strain [2]: 1 | methylation on microRNA, FTD resistant strain [2]: 10

Compound: miR-4435 (AUGGCCAGAGCUCACACAGAGG; chemistry not fully specified; listed as Homo sapiens)
Rate of change 5-FU (fold) [2]: 2.38 fold | miRNA methylation, 5-FU parental strain [2]: 28 | miRNA methylation, 5-FU resistant strain [2]: 14 | miRNA methylation, FTD parental strain [2]: 46 | miRNA methylation, FTD resistant strain [2]: 100 | Rate of change, FTD (fold) [2]: 1.41 fold

Compound: miR-492 (AGGACCUGCGGGACAAGAUUCUU; chemistry not fully specified; listed as Homo sapiens)
methylation on microRNA, 5-FU parental strain [2]: 0 | methylation on microRNA, 5-FU resistant strain [2]: 0 | methylation on microRNA, FTD parental strain [2]: 0 | methylation on microRNA, FTD resistant strain [2]: 0

Compound: miR-378f (ACUGGACUUGGAGCCAGAAG; chemistry not fully specified; listed as Homo sapiens)
Rate of change, 5-FU resistance (fold) [2]: 0.67 fold | methylation on microRNA, 5-FU parental strain [2]: 3 | methylation on microRNA, 5-FU resistant strain [2]: 1 | Rate of change, FTD resistance (fold) [2]: (0.50) fold | methylation on microRNA, FTD parental strain [2]: 2 | methylation on microRNA, FTD resistant strain [2]: 1

Compound: miR-4467 (UGGCGGCGGUAGUUAUGGGCUU; chemistry not fully specified; listed as Homo sapiens)
Rate of change 5-FU (fold) [2]: (1.00) fold | miRNA methylation, 5-FU parental strain [2]: 6 | miRNA methylation, 5-FU resistant strain [2]: 6 | miRNA methylation, FTD parental strain [2]: 1 | miRNA methylation, FTD resistant strain [2]: 12 | Rate of change, FTD (fold) [2]: 8.00 fold

Compound: miR-4754 (AUGCGGACCUGGGUUAGCGGAGU; chemistry not fully specified; listed as Homo sapiens)
Rate of change, 5-FU resistance (fold) [2]: (1.33) fold | methylation on microRNA, 5-FU parental strain [2]: 3 | methylation on microRNA, 5-FU resistant strain [2]: 4 | Rate of change, FTD resistance (fold) [2]: 0.00 fold | methylation on microRNA, FTD parental strain [2]: 4 | methylation on microRNA, FTD resistant strain [2]: 0

Compound: miR-378h (ACUGGACUUGGUGUCAGAUGG; chemistry not fully specified; listed as Homo sapiens)
Rate of change, 5-FU resistance (fold) [2]: 0.00 fold | methylation on microRNA, 5-FU parental strain [2]: 1 | methylation on microRNA, 5-FU resistant strain [2]: 0 | methylation on microRNA, FTD parental strain [2]: 0 | methylation on microRNA, FTD resistant strain [2]: 0

Compound: miR-3122 (GUUGGGACAAGAGGACGGUCUU; chemistry not fully specified; listed as Homo sapiens)
methylation on microRNA, 5-FU parental strain [2]: 0 | methylation on microRNA, 5-FU resistant strain [2]: 2 | methylation on microRNA, FTD parental strain [2]: 0 | methylation on microRNA, FTD resistant strain [2]: 0

Compound: miR-378e (ACUGGACUUGGAGUCAGGA; chemistry not fully specified; listed as Homo sapiens)
Rate of change, 5-FU resistance (fold) [2]: 1.64 fold | methylation on microRNA, 5-FU parental strain [2]: 11 | methylation on microRNA, 5-FU resistant strain [2]: 2 | Rate of change, FTD resistance (fold) [2]: 0.86 fold | methylation on microRNA, FTD parental strain [2]: 3 | methylation on microRNA, FTD resistant strain [2]: 6
